Measured values published in ChEMBL document CHEMBL1201862, “PubChem BioAssay data set” (2004).
Calls of active or inactive are those of the source.

What was measured:
[1] = target: T1, Corticotropin-releasing factor receptor 2/Corticotropin-releasing factor-binding protein (Homo sapiens, UniProt P24387+Q13324); experiment: Dose Response confirmation of uHTS hits for small molecule antagonists of the CRF-binding protein and CRF-R2 receptor complex.; type: functional; conditions: read-out: IC50_Mean
T1 sequence (Q13324 whole entry): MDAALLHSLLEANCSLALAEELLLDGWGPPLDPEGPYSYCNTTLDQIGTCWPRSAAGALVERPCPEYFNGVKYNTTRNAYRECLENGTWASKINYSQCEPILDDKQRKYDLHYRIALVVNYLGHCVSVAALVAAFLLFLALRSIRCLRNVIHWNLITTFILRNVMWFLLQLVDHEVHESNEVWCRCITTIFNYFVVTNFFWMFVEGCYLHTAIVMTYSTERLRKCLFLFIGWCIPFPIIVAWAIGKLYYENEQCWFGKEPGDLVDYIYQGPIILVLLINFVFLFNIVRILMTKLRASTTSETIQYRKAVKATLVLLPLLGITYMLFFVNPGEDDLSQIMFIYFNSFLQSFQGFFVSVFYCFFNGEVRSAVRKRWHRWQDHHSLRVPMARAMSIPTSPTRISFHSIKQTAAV
T1 sequence (P24387 whole entry): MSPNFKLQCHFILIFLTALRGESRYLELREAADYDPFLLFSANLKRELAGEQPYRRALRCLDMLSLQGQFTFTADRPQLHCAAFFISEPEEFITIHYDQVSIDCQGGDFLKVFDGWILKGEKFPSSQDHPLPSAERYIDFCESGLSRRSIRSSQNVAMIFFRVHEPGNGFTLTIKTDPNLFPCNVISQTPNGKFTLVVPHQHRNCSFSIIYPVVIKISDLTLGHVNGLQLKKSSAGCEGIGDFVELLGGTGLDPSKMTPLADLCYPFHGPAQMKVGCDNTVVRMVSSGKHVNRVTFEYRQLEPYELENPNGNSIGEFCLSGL

[2] = target: T1, Corticotropin-releasing factor receptor 2/Corticotropin-releasing factor-binding protein; experiment: activators of CRF receptor 2 with binding protein – uHTS hits, confirmation (AID 602473); type: functional; conditions: read-out: EC50_Mean
Cytochrome P450 2C19 = Cytochrome P450 2C19 (Homo sapiens, UniProt P33261); experiment: Cytochrome panel assay with activity outcomes. Panel member name: p450-cyp2c19 Compounds with AC50 equal or less than 10 uM are considered active; type: functional
[3] = target: T2, Replicative DNA helicase DnaB (Mycobacterium tuberculosis, UniProt P9WMR3); experiment: DnaB intein splicing inhibitors, dose response, biochemical, cell-free fluorescence (AID 449749); type: functional
T2 sequence (P9WMR3 whole entry): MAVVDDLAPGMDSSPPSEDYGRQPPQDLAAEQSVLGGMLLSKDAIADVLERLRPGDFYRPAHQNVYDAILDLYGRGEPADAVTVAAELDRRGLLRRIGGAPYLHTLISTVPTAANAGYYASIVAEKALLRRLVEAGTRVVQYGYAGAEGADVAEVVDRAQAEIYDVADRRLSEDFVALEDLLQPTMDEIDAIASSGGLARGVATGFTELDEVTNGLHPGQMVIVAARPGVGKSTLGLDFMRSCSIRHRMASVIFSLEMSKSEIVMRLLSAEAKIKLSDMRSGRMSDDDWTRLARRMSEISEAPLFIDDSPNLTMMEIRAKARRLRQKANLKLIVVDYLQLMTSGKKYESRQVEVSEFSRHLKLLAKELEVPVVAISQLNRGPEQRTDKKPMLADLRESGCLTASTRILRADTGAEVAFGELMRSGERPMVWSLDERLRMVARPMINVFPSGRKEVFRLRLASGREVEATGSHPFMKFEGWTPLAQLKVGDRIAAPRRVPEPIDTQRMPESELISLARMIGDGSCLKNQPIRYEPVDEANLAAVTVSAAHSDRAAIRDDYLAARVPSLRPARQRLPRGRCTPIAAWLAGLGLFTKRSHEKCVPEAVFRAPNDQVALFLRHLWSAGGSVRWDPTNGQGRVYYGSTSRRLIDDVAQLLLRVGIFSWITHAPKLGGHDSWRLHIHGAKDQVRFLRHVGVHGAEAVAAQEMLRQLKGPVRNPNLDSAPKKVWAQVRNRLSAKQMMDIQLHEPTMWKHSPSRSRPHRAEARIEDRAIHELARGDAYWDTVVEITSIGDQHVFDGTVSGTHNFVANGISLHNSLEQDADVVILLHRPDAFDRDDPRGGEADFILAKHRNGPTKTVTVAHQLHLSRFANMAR

Protein RecA = target: T3, Protein RecA (Mycobacterium tuberculosis, UniProt P9WHJ3); experiment: Fluorescence Cell-Free Homogeneous Dose Retest to Identify Inhibitors of RecA-Intein Splicing Activity. [Related pubchem assays (depositor defined):AID2097, AID2223, AID489010, AID492950]; type: functional
T3 sequence (P9WHJ3 whole entry): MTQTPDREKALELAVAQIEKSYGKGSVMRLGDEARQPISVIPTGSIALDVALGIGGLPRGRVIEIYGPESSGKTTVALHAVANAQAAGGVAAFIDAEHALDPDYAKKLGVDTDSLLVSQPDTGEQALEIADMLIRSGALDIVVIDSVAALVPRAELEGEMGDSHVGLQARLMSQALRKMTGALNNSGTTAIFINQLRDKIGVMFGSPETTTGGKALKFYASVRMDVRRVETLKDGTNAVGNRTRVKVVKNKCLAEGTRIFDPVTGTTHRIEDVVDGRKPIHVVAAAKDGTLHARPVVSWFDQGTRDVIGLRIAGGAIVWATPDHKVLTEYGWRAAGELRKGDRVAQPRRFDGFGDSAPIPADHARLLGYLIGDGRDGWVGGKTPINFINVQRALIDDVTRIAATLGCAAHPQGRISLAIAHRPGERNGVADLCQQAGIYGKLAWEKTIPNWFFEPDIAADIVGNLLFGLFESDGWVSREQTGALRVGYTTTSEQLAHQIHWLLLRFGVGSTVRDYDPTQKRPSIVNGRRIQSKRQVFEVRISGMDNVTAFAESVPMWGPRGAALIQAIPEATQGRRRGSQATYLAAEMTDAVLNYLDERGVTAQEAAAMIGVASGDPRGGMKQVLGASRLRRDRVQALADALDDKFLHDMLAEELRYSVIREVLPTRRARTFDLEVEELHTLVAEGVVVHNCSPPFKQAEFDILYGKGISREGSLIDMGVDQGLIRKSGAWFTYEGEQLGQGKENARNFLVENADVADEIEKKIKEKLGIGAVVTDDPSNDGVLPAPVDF

Cytochrome P450 3A4 = Cytochrome P450 3A4 (Homo sapiens, UniProt P08684);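 further: CYP3A4 tested as one member of a cytochrome P450 panel screen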
Cytochrome P450 2C9 = Cytochrome P450 2C9 (Homo sapiens, UniProt P11712)
H4 = experiment: Luminescence Cell-Based Dose Response HTS to Identify Activators of 5'UTR Stem-Loop Driven Prion Protein mRNA Translation in H4 Neuroglioblastoma Cells. [Related pubchem assays: 1829 (Project Summary), 1814 (Primary HTS)]; type: functional; conditions: Homo sapiens
[4] = Luminescence Cell-Based Dose Response HTS to Identify Activators of Luciferase Translation or Activity in H4 […] Cells. [Related pubchem assays: 1829 (Project Summary), 1814 (Primary HTS)]; type: functional

Cytochrome P450 2C9, sequence (P11712 whole entry): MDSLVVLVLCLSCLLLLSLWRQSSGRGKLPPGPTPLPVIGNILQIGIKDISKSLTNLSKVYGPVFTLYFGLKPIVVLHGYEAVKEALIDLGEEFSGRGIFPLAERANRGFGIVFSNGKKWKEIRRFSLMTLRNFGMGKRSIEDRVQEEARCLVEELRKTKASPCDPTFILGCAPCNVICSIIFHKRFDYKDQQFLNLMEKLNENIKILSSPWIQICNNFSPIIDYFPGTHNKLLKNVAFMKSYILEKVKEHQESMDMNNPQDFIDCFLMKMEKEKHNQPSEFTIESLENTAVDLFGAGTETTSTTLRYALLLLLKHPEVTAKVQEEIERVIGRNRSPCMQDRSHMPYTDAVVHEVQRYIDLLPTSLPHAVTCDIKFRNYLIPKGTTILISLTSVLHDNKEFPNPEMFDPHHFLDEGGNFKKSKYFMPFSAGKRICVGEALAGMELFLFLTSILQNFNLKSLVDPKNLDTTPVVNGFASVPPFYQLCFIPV
Cytochrome P450 2C19, sequence (P33261 whole entry): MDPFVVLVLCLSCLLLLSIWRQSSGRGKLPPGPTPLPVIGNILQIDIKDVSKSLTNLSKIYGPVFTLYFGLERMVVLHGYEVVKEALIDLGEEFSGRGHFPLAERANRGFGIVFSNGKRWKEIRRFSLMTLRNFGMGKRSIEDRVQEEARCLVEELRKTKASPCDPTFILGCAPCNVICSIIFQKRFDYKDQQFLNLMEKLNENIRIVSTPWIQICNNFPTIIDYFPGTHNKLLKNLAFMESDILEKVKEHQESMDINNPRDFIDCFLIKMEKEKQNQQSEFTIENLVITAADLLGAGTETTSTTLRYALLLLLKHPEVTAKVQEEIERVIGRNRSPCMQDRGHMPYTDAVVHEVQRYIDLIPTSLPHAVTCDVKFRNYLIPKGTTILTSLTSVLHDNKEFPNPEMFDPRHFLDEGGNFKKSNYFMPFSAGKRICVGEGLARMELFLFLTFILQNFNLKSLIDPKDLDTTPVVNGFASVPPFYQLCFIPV
Cytochrome P450 3A4, sequence (P08684 whole entry): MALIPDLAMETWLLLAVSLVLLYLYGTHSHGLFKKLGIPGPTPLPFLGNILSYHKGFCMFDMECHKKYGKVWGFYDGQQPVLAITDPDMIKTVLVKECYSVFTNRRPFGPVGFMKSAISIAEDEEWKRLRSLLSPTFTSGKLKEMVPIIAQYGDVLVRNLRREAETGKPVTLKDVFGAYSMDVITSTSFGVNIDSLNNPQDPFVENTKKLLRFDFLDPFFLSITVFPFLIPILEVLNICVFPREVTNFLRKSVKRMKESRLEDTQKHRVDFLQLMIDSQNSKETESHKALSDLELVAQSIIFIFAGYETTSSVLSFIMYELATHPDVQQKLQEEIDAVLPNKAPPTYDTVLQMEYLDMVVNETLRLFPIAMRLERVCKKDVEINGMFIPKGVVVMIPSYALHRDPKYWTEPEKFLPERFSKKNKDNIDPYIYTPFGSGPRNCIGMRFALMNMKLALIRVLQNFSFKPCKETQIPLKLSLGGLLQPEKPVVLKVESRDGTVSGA

## O=C1C(=Cc2cccs2)C(=O)c2ccccc21
[1]
  IC50: > 47.1 µM (inactive)
[2]
  EC50: > 53 µM (inactive)

## O=C(/C=C/c1ccc2ccccc2n1)N1CCN(c2ccccc2)CC1
[1]
  IC50: > 47.1 µM (inactive)
[2]
  EC50: > 53 µM (inactive)

## COc1ccccc1CNc1nc(-c2ccccc2CN(C)C)nc2ccccc12
Cytochrome P450 2C19; read-out: AC50
  AC50: 25.1 µM (inconclusive)

## CCOC(=O)N1CCN(C(=O)CSc2nnc(-c3ccc(C(C)(C)C)cc3)o2)CC1
[1]
  IC50: > 47.1 µM (inactive)
[2]
  EC50: > 53 µM (inactive)

## COc1ccc(CCNC2=C(Cl)C(=O)N(Cc3ccccc3)C2=O)cc1OC
[1]
  IC50: > 47.1 µM (inactive)
[2]
  EC50: > 53 µM (inactive)

## O=C(NN1C(=O)CSC1=S)c1cccnc1
[1]
  IC50: > 47.1 µM (inactive)
[2]
  EC50: > 53 µM (inactive)

## CCOc1ccccc1NC(=O)CCC(=O)O
Cytochrome P450 2C19; read-out: AC50
  AC50: 3.16 µM (inconclusive)

## O=C1C(Cc2ccccc2)Nc2ncnc(N3CCc4ccccc4C3)c2N1Cc1ccc(Cl)cc1 (stereo unspecified)
[3]
  AC50: > 120 µM (inactive)
Protein RecA
  EC50: > 380 µM (inconclusive)

## CCCc1nnc(SCC(=O)N2CCCCC2C)n1CCCOC (stereo unspecified)
Cytochrome P450 2C19; read-out: AC50
  AC50: 39.8 µM (inconclusive)
Cytochrome P450 3A4
  AC50: 15.8 µM (inconclusive)
Cytochrome P450 2C9
  AC50: 0.0251 µM (inconclusive)

## Cc1cc(C(F)F)n2nc(C(=O)Nc3sc4c(c3C#N)CCC(C)C4)nc2n1 (stereo unspecified)
Cytochrome P450 2C19; read-out: AC50
  AC50: 31.6 µM (inconclusive)
Cytochrome P450 3A4
  AC50: 15.8 µM (inconclusive)

## Cc1n[nH]c2c1C1(CCN(Cc3ccccc3)CC1)C(C#N)=C(N)O2
[3]
  AC50: > 380 µM (inactive)
Protein RecA
  EC50: 1.07 µM (active)

## O=C(Nc1ccc(-c2nc3ccccc3s2)c(OC(=O)c2ccccc2)c1)c1ccccc1
H4
  EC50: > 120 µM (not active)

## CCNc1ncc2nc(CCc3ccccc3)c(=O)n(-c3ccc(OC)cc3)c2n1
Cytochrome P450 2C19; read-out: AC50
  AC50: 39.8 µM (inconclusive)
Cytochrome P450 2C9
  AC50: 15.8 µM (inconclusive)

## O=C1NC(=O)N(CCc2ccc(F)cc2)C(=O)/C1=C/NCCCN1CCOCC1
Cytochrome P450 2C19
  AC50: inconclusive

## N#Cc1c(N2CCOCC2)nsc1-c1ccc(C(F)(F)F)cc1
[4]
  EC50: 10.9 µM (active)
H4
  EC50: 24.7 µM (active)

## COCCCN1Cc2ccccc2C1=N
Cytochrome P450 2C19; read-out: AC50
  AC50: 39.8 µM (inconclusive)
Cytochrome P450 2C9
  AC50: 11.2 µM (inconclusive)

## Cc1sc(NC(=O)/C=C/C(=O)O)c(C(N)=O)c1-c1ccc(C(C)(C)C)cc1
[3]
  AC50: > 380 µM (inactive)
Protein RecA
  EC50: 5.82 µM (active)
